Reference: patent publication US9957325B2, “Synthetic antibody mimic peptides” (Formurex, Inc., priority 2015, dated 2018)
Where two headings read alike, the source gives them in different places. Where a SMILES comes first, the peptide text is derived from it. The star is where a group is joined. X1 = CC[C@H](C)[C@@H]([C@@H](CC(=O)N1CCC[C@H]1[C@H](OC)[C@@H](C)C(=O)N[C@H](C)[C@@H](OC(=O)CCCCC(=NNC(=O)CCCCCN1C(=O)CC(*)C1=O)c1ccccc1)c1ccccc1)OC)N(C)C(=O)[C@@H](NC(=O)[C@H](C(C)C)N(C)C)C(C)C

Columns and labels:
A431 cells [1] = conditions: for IC50: A431, 72 h, SRB; for more potent than the drug alone: EGFR over-expressing cancer cells (A431, MDA-MB-468), vs auristatin E
Experimental: (§1) Cells were cultured to 80% confluency in T75 culture flasks using Dulbecco's Modified Eagle's Medium (DMEM) as growth medium. The cell density was determined using a Coulter Counter. The cells were seeded onto 96 well plates and grown for 24 h. to 50% confluency. […] At the end of the incubation period, the cells were fixed using 10% trichloroacetic acid, followed by washing with distilled water and drying. The cellular proteins were stained using 50 μL of 0.4% sulforhodamine B (SRB) in 1% acetic acid. Unbound SRB was washed with 1% acetic acid and the plates were dried overnight. The cell-bound SRB was then solubilized using 200 μL of 10 mM unbuffered Tris base solution. SRB absorbance was measured at 560 nm wavelength using a Plate Reader. The percent viability of cells was plotted as a function of log concentration and data was analyzed in GraphPad Prism Version 5.0 software (GraphPad Software, Inc., California, USA) using a nonlinear-regression curve fit (variable slope four parameter equation).

HEK 293 cells = conditions: for IC50: HEK 293, 72 h, SRB
Experimental: as §1

MDA-MB-468 cells [2] = test: In vitro cytotoxicity, sulforhodamine B assay; format: cell-based; conditions: MDA-MB-468, 72 h, SRB
Experimental: as §1

[3] = target: T1, HER2 recombinant human protein (Homo sapiens, UniProt P04626); test: Surface plasmon resonance on immobilized HER2; format: binding; conditions: SPR
T1 construct: purchased Life Technologies / Thermo Fisher Scientific Inc
T1 sequence (P04626 23-1255): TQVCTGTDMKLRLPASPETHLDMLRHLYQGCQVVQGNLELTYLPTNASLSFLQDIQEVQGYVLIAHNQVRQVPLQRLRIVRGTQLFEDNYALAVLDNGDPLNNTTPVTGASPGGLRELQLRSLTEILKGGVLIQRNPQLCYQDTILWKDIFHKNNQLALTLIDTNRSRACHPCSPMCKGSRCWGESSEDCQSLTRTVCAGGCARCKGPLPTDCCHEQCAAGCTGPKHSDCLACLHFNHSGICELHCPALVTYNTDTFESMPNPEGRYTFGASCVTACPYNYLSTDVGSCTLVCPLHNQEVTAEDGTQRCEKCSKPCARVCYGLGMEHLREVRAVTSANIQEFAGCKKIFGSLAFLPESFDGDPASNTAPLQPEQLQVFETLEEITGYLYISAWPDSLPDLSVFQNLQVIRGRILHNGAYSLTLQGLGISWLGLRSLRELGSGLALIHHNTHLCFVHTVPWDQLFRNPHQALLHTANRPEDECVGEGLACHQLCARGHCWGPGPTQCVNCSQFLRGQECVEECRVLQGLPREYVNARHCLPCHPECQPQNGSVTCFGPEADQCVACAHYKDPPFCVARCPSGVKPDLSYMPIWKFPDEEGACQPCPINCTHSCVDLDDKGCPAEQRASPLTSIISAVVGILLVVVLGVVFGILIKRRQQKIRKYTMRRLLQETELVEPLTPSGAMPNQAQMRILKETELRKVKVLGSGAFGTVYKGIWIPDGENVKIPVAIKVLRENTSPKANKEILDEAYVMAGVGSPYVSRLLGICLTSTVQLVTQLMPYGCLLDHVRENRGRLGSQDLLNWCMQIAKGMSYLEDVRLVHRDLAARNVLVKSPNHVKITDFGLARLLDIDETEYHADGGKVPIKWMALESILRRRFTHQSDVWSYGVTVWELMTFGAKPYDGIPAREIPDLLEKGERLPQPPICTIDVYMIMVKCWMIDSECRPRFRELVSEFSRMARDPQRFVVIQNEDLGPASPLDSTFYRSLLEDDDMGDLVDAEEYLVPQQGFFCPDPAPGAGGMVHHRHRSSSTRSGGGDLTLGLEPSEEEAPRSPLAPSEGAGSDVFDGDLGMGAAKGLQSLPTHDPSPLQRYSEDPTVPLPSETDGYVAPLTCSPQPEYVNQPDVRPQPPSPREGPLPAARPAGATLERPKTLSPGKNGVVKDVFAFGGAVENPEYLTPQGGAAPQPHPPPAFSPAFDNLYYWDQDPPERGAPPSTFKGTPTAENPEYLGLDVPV
Experimental: All experiments were carried out at 25° C. with a data collection rate of 2 Hz. The running method was created using the Autolink control software. PBS with 0.01% Tween 20 (pH7.4) buffers were filtered and thoroughly degassed before use. HER2 recombinant human protein was covalently attached to the left channel of a 500,000 Da carboxymethylated dextran sensor chip using EDC and NHS chemistries. Then, the chip was blocked by passing EA for 8 minutes at a rate of 10 μL/min. […] Triplicate determinations were done at each concentration. The bound surface was regenerated by sequential injections of 10 mM glycine in PBST (pH 2.5).
The sensorgrams from SPR were globally treated using Scrubber 2® software where all traces were zeroed, cropped, aligned, and referenced. Kinetic constants ka and kd were determined by global fitting analyses of the titration curves using the 1:1 Lagmurian interaction model taking into account the mass transport. The equilibrium dissociation constant (KD) was calculated from the kd/ka ratio.

[4] = test system: MDA-MB-361, ZR-75-1 and HEK293 cells; test: Confocal microscopy binding of FITC labeled HER2-PEPs; format: cell-based; conditions: 10 μM FITC labeled peptide, 15 minutes at 37° C.
Experimental: MDA-MB-361, ZR-75-1 and […] cells were grown in T75 flasks at 37° C. and 5% CO2. Upon reaching 80% confluency, the cells were counted and seeded onto coverslips placed inside 6-well culture plates at a density of 80,000 cells/well. The cells were allowed to attach for 24 hours before the experiment was performed. Upon attachment, the cells were washed twice with HBSS and serum free media.
Stock solutions of FITC labeled HER2-PEPs and control peptide were prepared with dimethyl sulfoxide (DMSO). Stock solutions were diluted with serum free media medium several times and less than 1% of DMSO was presented in the final solutions of all peptides (10 μM), which were added to the 6-well culture plates.
After incubating 15 minutes at 37° C., the medium was removed and the cells were washed twice with HBSS. The cells were then treated with a 2.5 μg/mL solution of Alexa fluor 594 wheat germ agglutinin in HBSS for 10 minutes to stain the cell plasma membrane. The dye solution was removed and cells were washed twice with HBSS. The cells were then fixed by performing a 15 minute treatment using 4% paraformaldehyde solution prepared in HBSS. The cells were washed with HBSS followed by a final wash of distilled water. […] The FITC fluorescence was visualized using 491 nm and the Alexa fluor 594 fluorescence was visualized using 561 nm wavelength filter.

[5] = Peptide-drug conjugate pH hydrolysis study; format: physicochemical
Experimental: Peptide-drug conjugate was evaluated for half-life determination at pH 5 and 7.4. For this, a 1 mg/mL concentration of PDC was incubated in ammonium bicarbonate buffers, pH 5 and 7.4. Degradation of PDC was evaluated by calculating the area under the curve after 0, 0.5, 1, 2, 4, 6 and 48 hours using HPLC with a gradient method, with TEAA buffer pH 7 and acetonitrile.

Recombinant human EGFR = Recombinant human EGFR (Homo sapiens, UniProt P00533); test: Surface plasmon resonance on immobilized EGFR; conditions: SPR, EGFR as immobilized surface, 1:1 binding model, 25° C.
Chain of Recombinant human EGFR (P00533 25-1210): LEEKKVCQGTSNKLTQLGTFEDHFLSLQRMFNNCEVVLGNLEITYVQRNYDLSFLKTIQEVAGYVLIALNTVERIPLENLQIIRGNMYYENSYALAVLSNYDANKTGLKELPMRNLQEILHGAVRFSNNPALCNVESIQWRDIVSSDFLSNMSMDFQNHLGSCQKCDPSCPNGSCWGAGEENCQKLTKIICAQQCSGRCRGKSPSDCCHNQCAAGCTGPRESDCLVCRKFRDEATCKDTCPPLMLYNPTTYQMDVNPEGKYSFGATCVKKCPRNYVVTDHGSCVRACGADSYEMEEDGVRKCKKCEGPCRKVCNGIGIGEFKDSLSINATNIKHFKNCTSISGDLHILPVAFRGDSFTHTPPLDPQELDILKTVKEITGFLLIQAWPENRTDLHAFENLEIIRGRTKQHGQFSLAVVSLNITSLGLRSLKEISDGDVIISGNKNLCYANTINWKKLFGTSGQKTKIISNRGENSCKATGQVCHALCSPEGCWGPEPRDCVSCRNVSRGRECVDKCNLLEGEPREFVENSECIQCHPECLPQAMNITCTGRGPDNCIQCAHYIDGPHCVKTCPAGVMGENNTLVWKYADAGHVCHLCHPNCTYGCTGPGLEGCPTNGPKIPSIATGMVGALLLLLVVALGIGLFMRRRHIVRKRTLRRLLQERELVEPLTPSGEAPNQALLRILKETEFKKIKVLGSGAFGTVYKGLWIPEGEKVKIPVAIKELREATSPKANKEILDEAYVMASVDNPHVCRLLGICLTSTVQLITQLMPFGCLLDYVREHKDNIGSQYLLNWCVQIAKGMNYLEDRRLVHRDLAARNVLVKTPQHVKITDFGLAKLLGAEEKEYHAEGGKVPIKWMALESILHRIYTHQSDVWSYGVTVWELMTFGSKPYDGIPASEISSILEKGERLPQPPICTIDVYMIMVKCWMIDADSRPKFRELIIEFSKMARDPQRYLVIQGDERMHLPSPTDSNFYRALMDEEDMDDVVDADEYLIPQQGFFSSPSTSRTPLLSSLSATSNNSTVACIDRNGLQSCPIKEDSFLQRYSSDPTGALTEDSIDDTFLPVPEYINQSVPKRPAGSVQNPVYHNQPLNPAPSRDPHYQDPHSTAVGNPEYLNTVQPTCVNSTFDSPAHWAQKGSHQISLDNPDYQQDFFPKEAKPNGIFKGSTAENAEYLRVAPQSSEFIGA
Experimental: Binding affinity constant of antibody mimics was calculated by surface plasmon resonance (Reichert SR7000DC). A carboxymethyl dextran gold sensor chip was activated by N-hydroxysuccinimide (NHS) and N-ethyl-N″-[3-([…])propyl] carbodiimide (EDC) at 25° C. using phosphate buffered saline pH 7.4 with 0.05% tween 20 as running buffer. […] Unreactive sites were blocked by flowing over the chip 1 M ethanolamine pH 8.5 at 10 μL/min for 8 minutes. […] The resulting sensograms were globally fitted using Scrubber2 software (BioLogic Software, Campbell, Australia) in a 1:1 binding model to determine the association rate (kon), dissociation rate (kd or koff), and dissociation constant KD.

[6] = test system: A431, MDA-MB-468 and HEK 293 cells; test: Confocal binding/internalization of FITC labeled peptides; format: cell-based
Experimental: (§2) A431, MDA-MB-468 and HEK 293 cells were cultured in 75 cm^2 culture flasks in DMEM supplemented with 10% FBS. For binding/internalization studies, 5×10^5 cells were seeded in cover slips in 6 well culture plates overnight. After the medium was removed, the cells were washed with HBSS and then cells were treated with FITC labeled antibody mimic and scrambled (control) peptide in serum free DMEM for 30 minutes at 37° C. Cells were then washed with HBSS to remove any unbound peptides and incubated with AlexaFluor 594 wheat germ agglutinin to stain cell membranes. Cells were fixed with 4% paraformaldehyde and cover slips were mounted on slides which contain a drop of SlowFade®. Cells were then imaged with an inverted Leica DMIRE2 fluorescence microscope (Leica Biosystems Richmond Inc., Richmond, USA) using a Yokogawa CSUX1 confocal scanner unit. For flow cytometry studies, cells were washed with HBSS after incubation with antibody mimics, control peptide for 30 minutes, and dissociated using trypsin-EDTA. Cells were then centrifuged at 500 g for 5 min. Supernatant was removed and cell pellets were re-suspended in FACS solution. The cell suspension was then analyzed on a Beckman Coulter flow cytometer and data were analyzed using the Cell Questpro. A total of 10000 events were collected monitoring FITC.

A431 cells [7] = test: Flow cytometry uptake of FITC labeled peptides; format: cell-based
Experimental: as §2

MDA-MB-468 cells [8] = test: Flow cytometry uptake of FITC labeled peptides; format: cell-based
Experimental: as §2

With `CC[C@H](C)[C@@H]([C@@H](CC(=O)N1CCC[C@H]1[C@H](OC)[C@@H](C)C(=O)N[C@H](C)[C@@H](O)c1ccccc1)OC)N(C)C(=O)[C@@H](NC(=O)[C@H](C(C)C)N(C)C)C(C)C` [Auristatin E, reference compound] the IC50 (A431 cells [1]) was 0.0246 nM, the IC50 (HEK 293 cells) was 0.0626 nM and the IC50 (MDA-MB-468 cells [2]) was 0.0117 nM.
For `CC(C)C[C@H](NC(=O)[C@H](Cc1ccccc1)NC(=O)CNC(=O)[C@H](C)NC(=O)[C@H](CC(=O)O)NC(=O)[C@H](CC(N)=O)NC(=O)[C@@H]1CCCN1C(=O)[C@H](Cc1ccc(O)cc1)NC(=O)CNC(=O)[C@H](CCC(N)=O)NC(=O)[C@@H]1CCCN1C(=O)[C@H](CO)NC(=O)[C@@H](N)[C@@H](C)O)C(=O)NCC(=O)N[C@@H](CCCNC(=N)N)C(=O)N[C@@H](CCC(=O)O)C(=O)N[C@@H](CO)C(=O)N[C@H](C(=O)N[C@@H](CC(N)=O)C(=O)O)[C@@H](C)O` [HER2-Pep22] (H-TSPQGYPNDAGFLGRESTN-OH; N-terminus and C-terminus assumed), the “KD higher than that of HER2-PEP11 and HER2-PEP21” value [3] was “about 2000 fold”, the kd ([3]; HER2 immobilized, 1:1 model, 25° C.) was 0.0181 s⁻¹ and the kon ([3]; HER2 immobilized, 1:1 model, 25° C., read-out: ka) was 131 M⁻¹ s⁻¹. The “binding to cells, confocal microscopy” value [4] was “no binding to all the three cell lines”.
In the case of `CC[C@H](C)[C@@H]([C@@H](CC(=O)N1CCC[C@H]1[C@H](OC)[C@@H](C)C(=O)N[C@H](C)[C@@H](OC(=O)CCCCC(=NNC(=O)CCCCCN1C(=O)CC(SC[C@H](NC(=O)[C@H](C)NC(=O)[C@H](CCC(=O)O)NC(=O)[C@H](Cc2ccc(O)cc2)NC(=O)[C@H](CC(=O)O)NC(=O)[C@H](Cc2ccc(O)cc2)NC(=O)[C@H](Cc2ccccc2)NC(=O)[C@@H](NC(=O)CNC(=O)[C@@H]2CCCN2C(=O)CNC(=O)[C@H](CC(N)=O)NC(=O)[C@H](CCC(=O)O)NC(=O)CNC(=O)[C@H](CO)NC(=O)[C@@H](N)Cc2c[nH]c3ccccc23)[C@@H](C)O)C(=O)O)C1=O)c1ccccc1)c1ccccc1)OC)N(C)C(=O)[C@@H](NC(=O)[C@H](C(C)C)N(C)C)C(C)C` (some centres unmarked) [PDC] (H-WSGENGPGTFYDYEAC(X1)-OH; N-terminus and C-terminus assumed), the half-life at 1 mg/mL ([5]; pH 5, ammonium bicarbonate buffer) is reported as 2.8 h, the half-life at 1 mg/mL ([5]; pH 7.4, ammonium bicarbonate buffer) is reported as over 48 h and the “more potent than the drug alone” value (A431 cells [1]) is reported as “approximately 10 fold”. For the same compound, the “more potent than the drug alone” value (A431 cells [1]; listed as Peptide-drug conjugate) was “around 10 fold” and the “potency lower than drug alone” value (HEK 293 cells; control cells (HEK 293), vs auristatin E) was “more than 100 fold”.
In the case of `C[C@H](NC(=O)[C@H](CCC(=O)O)NC(=O)[C@H](Cc1ccc(O)cc1)NC(=O)[C@H](CC(=O)O)NC(=O)[C@H](Cc1ccccc1)NC(=O)[C@H](Cc1ccc(O)cc1)NC(=O)CNC(=O)[C@@H]1CCCN1C(=O)CNC(=O)[C@H](CC(N)=O)NC(=O)[C@H](CCC(=O)O)NC(=O)CNC(=O)[C@H](CO)NC(=O)[C@@H](N)Cc1c[nH]c2ccccc12)C(=O)O` [Pep6] (H-WSGENGPGYFDYEA-OH; N-terminus and C-terminus assumed), the koff (Recombinant human EGFR) is reported as 0.00581 s⁻¹ and the kon (Recombinant human EGFR) is reported as 1210 M⁻¹ s⁻¹.
For `C[C@H](NC(=O)[C@H](CCC(=O)O)NC(=O)[C@H](Cc1ccc(O)cc1)NC(=O)[C@H](CC(=O)O)NC(=O)[C@H](Cc1ccc(O)cc1)NC(=O)[C@H](Cc1ccccc1)NC(=O)CNC(=O)[C@@H]1CCCN1C(=O)CNC(=O)[C@H](CC(N)=O)NC(=O)[C@H](CCC(=O)O)NC(=O)CNC(=O)[C@H](CO)NC(=O)[C@@H](N)Cc1c[nH]c2ccccc12)C(=O)O` [Pep11] (H-WSGENGPGFYDYEA-OH; N-terminus and C-terminus assumed), the IC50 (A431 cells [1]) was 388 nM, the IC50 (HEK 293 cells) was 1040 nM and the “lower potency towards control cells compared to cancer cells” value (HEK 293 cells; HEK 293 vs cells that over-express EGFR) was 2- to 3 fold. The Kd (Recombinant human EGFR) was 252 nM, the koff (Recombinant human EGFR) was 0.0252 s⁻¹ and the kon (Recombinant human EGFR) was 100000 M⁻¹ s⁻¹. For the same compound, the IC50 (MDA-MB-468 cells [2]) was 420 nM and the “binding to cells after cetuximab pre-incubation” value ([6]; EGFR blocked by cetuximab for 30 min, A431 and MDA-MB-468) was “inhibited/decreased”.
Work on `C[C@H](NC(=O)[C@H](CCC(=O)O)NC(=O)[C@H](Cc1ccc(O)cc1)NC(=O)[C@H](CC(=O)O)NC(=O)[C@H](Cc1ccc(O)cc1)NC(=O)[C@H](Cc1ccccc1)NC(=O)[C@@H](NC(=O)CNC(=O)[C@@H]1CCCN1C(=O)CNC(=O)[C@H](CC(N)=O)NC(=O)[C@H](CCC(=O)O)NC(=O)CNC(=O)[C@H](CO)NC(=O)[C@@H](N)Cc1c[nH]c2ccccc12)[C@@H](C)O)C(=O)O` [Pep22] (H-WSGENGPGTFYDYEA-OH; N-terminus and C-terminus assumed) yielded a koff (Recombinant human EGFR) of 0.0259 s⁻¹ and a kon (Recombinant human EGFR) of 43500 M⁻¹ s⁻¹.
Work on `C[C@H](N)C(=O)N[C@@H](CCC(=O)O)C(=O)N[C@@H](Cc1ccc(O)cc1)C(=O)N[C@@H](CC(=O)O)C(=O)N[C@@H](Cc1ccccc1)C(=O)N[C@@H](Cc1ccc(O)cc1)C(=O)NCC(=O)N1CCC[C@H]1C(=O)NCC(=O)N[C@@H](CC(N)=O)C(=O)N[C@@H](CCC(=O)O)C(=O)NCC(=O)N[C@@H](CO)C(=O)N[C@@H](Cc1c[nH]c2ccccc12)C(=O)O` [Pep24] (H-AEYDFYGPGNEGSW-OH; N-terminus and C-terminus assumed) yielded a koff (Recombinant human EGFR) of 0.103 s⁻¹ and a kon (Recombinant human EGFR) of 14300 M⁻¹ s⁻¹.
With “SGEWAYDGYEPNFG (Synthetic amino acid - Control) [Pep25, scrambled peptide, negative control]” the “binding to cancer cell line, flow cytometry” value (A431 cells [7]) was “negligible binding”, the “binding to cancer cell line, flow cytometry” value (MDA-MB-468 cells [8]) was “negligible binding” and the “binding to cells, confocal fluorescence” value ([6]; FITC labeled peptide, 30 minutes at 37° C.) was “negligible binding”.
